Here are results for five compounds from patent US20080319184A1, “Uses of Dinucleotide Polyphosphate Derivatives” (priority 2005, published 2008).

Assay [1] has as its system orthodromically evoked field potentials in CA1 zone of rat hippocampal slices. As to the kind of experiment: Orthodromically induced population spikes (field potentials) in CA1 zone of rat hippocampal slices. The class given is cell-based. The settings on record: for inhibition of orthodromically evoked field potentials by known P2X/P2Y agonists: in the same way as AppCH2ppA, FIG. 8, FIG. 9. The protocol:
This study was carried out on 21-day old Wistar rats (WAG/GSto, Moscow, Russia). After rapid decapitation, rat brains were immediately transferred to a Petri dish with chilled (4° C.) solution of the composition 120 mM NaCl, 5 mM KCl, 26 mM NaHCO3, 2 mM MgCl2 and 20 mM glucose. Calcium salts were omitted to reduce possible neuronal damage. The solution was constantly bubbled with 95%O2/5%CO2 gas mixture to maintain pH7.4. Hippocampal slices ([…] thick) were cut manually with a razor blade along the alveolar fibres to preserve the lamellar structure of excitatory connections. During preincubation and experiments, the slices were kept fully submerged in the extracellular solution, pH7.4, comprised of 135 mM NaCl, 5 mM KCl, 26 mM NaHCO3, 1.5 mM CaCl2, 1.5 mM MgCl2, and 20 mM glucose, subjected to continuous bubbling with 95% O2/5% CO2) at 30-31° C. […] (RBI, Natick, Mass., USA) was also included into the extracellular solution during experiments to suppress the inhibitory activity of interneurons. Electrophysiological measurements were recording after at least 2 h of preincubation.
Excitatory postsynaptic currents (EPSCs) were recorded by a standard whole-cell patch clamp technique in the CA1 subfield of the hippocampus in response to stimulation of the Schaffer collateral/commissural pathway. To prevent the spread of electrical activity from area CA3, mini-slices were prepared by making a cut orthogonal to the stratum pyramidale extending to the mossy fibre layer. The intracellular solution, pH 7.2, for patch pipettes was comprised of 100 mM CsF (Merck, Darmstadt, FRG), 40 mM NaH2PO4, 10 mM HEPES-CsOH, 10 mM Tris-HCl. […] Access resistance was monitored throughout the experiments and ranged typically from 6 to 9MΩ. […] Extracellular field potentials were recorded using Ni/Cr electrodes. […] The effects of receptor agonists of antagonists were measured as the mean ratio I/Io where I was the current under the substances action and Io was the current in control saline. […]

Assay [2] relates to excitatory postsynaptic currents in CA1 pyramidal neuron. The settings on record: cited from earlier work.
Assay [3] concerns orthodromically evoked field potentials in CA1 zone of rat hippocampal slices. To be noted: cited from earlier work.
The test system of assay [4] is NMDA-receptor-mediated channels. As to the kind of experiment: NMDA-activated current in isolated hippocampal pyramidal neurons (whole-cell patch clamp). The class given is cell-based, rat. The protocol:
NMDA-receptor-activated currents were evoked by 1-2 sec long co-application of aspartate (ASP) (1 mM) and glycine (10 μM). Vh=−100 mV in Mg^2+ free solution.
Wistar rats (12-17-days old) were decapitated under ether anaesthesia and the hippocampus (or cerebellum) was removed. It was cut into slices (300-500 μm) in a solution containing (in mM): 150 NaCl; 5 KCl; 1.25 NaH2PO4; 26 NaHCO3; 1.1 MgCl2; 10 glucose; pH 7.4. Then the slices were incubated for 10 min at 32° C. with 0.5 mg/ml of protease (type XXIII) from Aspergillus oryzae. Single pyramidal cells from CA1 and CA3 stratum pyramidale layers were isolated by vibrodissociation locally in the stratum pyramidale CA3 and CA1 hippocampal pyramidal neurons were identified by their characteristic form and partially preserved dendritic arborisation.
After isolation the cells were usually suitable for recordings for 2-4 h. Throughout the entire procedure the solutions with the slices were continuously saturated with 95% O2 and 5% CO2 gas mixture to maintain pH 7.4. The tested substances were dissolved in DMSO to a stock concentration of 10 mM and kept frozen at −40° C. in daily aliquots. The substances were dissolved in external saline to their final concentration immediately before the experiments.
NMDA-activated currents in isolated neurons were induced by the step application of aspartate (1 mM) and […] in the “concentration clamp” mode (Krishtal et al., 1983), using the computerized “Pharma-Robot” set-up (Pharma-Robot, Kiev). This equipment allows a complete change of saline within 15 ms. Transmembrane currents were recorded using a conventional patch-clamp technique, in the whole-cell configuration. […] The intracellular solution contained (in mM): 70 Tris-PO4; 5 EGTA; 40 TEA-Cl (tetraethylammonium chloride); 30 Tris-Cl; 5 Mg-ATP; 0.5 GTP; pH 7.2. The composition of extracellular solution was (in mM):. 130 NaCl; 3 CaCl2; 5 KCl; 2 MgCl2; 10 HEPES-NaOH; 0.1 μM TTX; pH 7.4. Recording of the currents was performed using patch-clamp amplifiers (DAGAN, USA). Transmembrane currents were filtered at 3 kHz, stored and analysed with an IBM-PC computer using homemade software. NMDA responses were recorded with a 3 min interval. All experiments were performed at room temperature (19-24° C.).

The subject of assay [5] is CFA-induced thermal hyperalgesia. In words: CFA-induced thermal hyperalgesia (Plantar test, paw withdrawal latency). The class given is in vivo, rat. On the procedure: CFA-Induced Thermal Hyperalgesia. Unilateral inflammation was induced by injecting 100 μl of 50% solution of CFA (Sigma) in physiological saline into the plantar surface of the right hind paw of the rat. The hyperalgesia to thermal stimulation was determined 48 h after CFA injections using the same apparatus as described below for the noxious acute thermal assay.
Thermal sensitivity: On each day following mechanical testing, rats will be placed in a thermal testing apparatus (Plantar test, Ugo Basile, Italy), in which they will be free to move. After 30 min of acclimatization, a constant-power IR stimulus will be focused through the glass base on to the sole of the foot, and the latency for reflex foot withdrawal will be recorded automatically via a photoelectric monitor as previously described Hargreaves et al. 1988.
In each test session, each rat (from 6 tested rats) was tested in three sequential trials at approximately 15 min intervals.

For assay [6], the system named is antidromically induced population spikes in CA1 zone of rat hippocampal slices. In words: Antidromically induced population spikes in CA1 zone of rat hippocampal slices. The class given is cell-based. The protocol:
(§1) This study was carried out on 21-day old Wistar rats (WAG/GSto, Moscow, Russia). After rapid decapitation, rat brains were immediately transferred to a Petri dish with chilled (4° C.) solution of the composition 120 mM NaCl, 5 mM KCl, 26 mM NaHCO3, 2 mM MgCl2 and 20 mM glucose. Calcium salts were omitted to reduce possible neuronal damage. The solution was constantly bubbled with 95%O2/5%CO2 gas mixture to maintain pH7.4. Hippocampal slices ([…] thick) were cut manually with a razor blade along the alveolar fibres to preserve the lamellar structure of excitatory connections. […]
(§2) Excitatory postsynaptic currents (EPSCs) were recorded by a standard whole-cell patch clamp technique in the CA1 subfield of the hippocampus in response to stimulation of the Schaffer collateral/commissural pathway. […] Access resistance was monitored throughout the experiments and ranged typically from 6 to 9MΩ. […] Extracellular field potentials were recorded using Ni/Cr electrodes. […] The effects of receptor agonists of antagonists were measured as the mean ratio I/Io where I was the current under the substances action and Io was the current in control saline. […]

Assay [7] relates to orthodromically evoked field potentials in CA1 zone of rat hippocampal slices. In words: Orthodromically induced population spikes (field potentials) in CA1 zone of rat hippocampal slices. The class given is cell-based.
Assay [8] concerns excitatory postsynaptic currents in CA1 pyramidal neuron. In words: Excitatory postsynaptic currents (EPSCs), whole-cell patch clamp in CA1 pyramidal neuron of hippocampal slices. In kind it is cell-based, rat. The protocol:
as §1, §2

Each structure is given as a SMILES string. Entries after “also recorded” stand apart in the source; their conditions may differ. Where two headings read alike, the source gives them in different places.

On to `Nc1ncnc2c1ncn2[C@@H]1O[C@H](COP(=O)(O)OP(=O)(O)OP(O)(O)=S)[C@@H](O)[C@H]1O` [ATPγS], for which the “inhibition of orthodromically evoked field potentials by known P2X/P2Y agonists” value in assay [1] is reported as “unable to inhibit”.

Take `Nc1ncnc2c1ncn2[C@@H]1O[C@H](COP(=O)(O)OP(=O)(O)OP(=O)(O)OP(=O)(O)OC[C@H]2O[C@@H](n3cnc4c(N)ncnc43)[C@H](O)[C@@H]2O)[C@@H](O)[C@H]1O` [Ap4A, diadenosine 5′,5′″-P^1,P^4-tetraphosphate]: the “effect on excitatory postsynaptic currents” value in assay [2] (literature) is “inhibition”. Besides, the “effect on orthodromically evoked field potentials” value in assay [3] (literature) is listed as “inhibition”.

As for `Nc1ncnc2c1ncn2[C@@H]1O[C@H](COP(=O)(O)OP(=O)(O)CP(=O)(O)OP(=O)(O)OC[C@H]2O[C@@H](n3cnc4c(N)ncnc43)C(O)C2O)C(O)C1O` (stereo partly shown) [AppCH2ppA], in assay [4] (P2Y receptor antagonist reactive blue), the “effect on NMDA-activated current in presence of reactive blue” value is listed as “eliminated”. Besides, the “effect on NMDA-activated current in presence of EDTA” value in assay [4] (chelator of bivalent cations EDTA) is listed as “removed”. Besides, the “amplitude of the NMDA-activated current” value in assay [4] (low micromolar concentrations, concentration-dependent manner) is given as “increased”. In addition, in assay [4] (non-specific tyrosine protein kinase inhibitor genestein), the “effect on NMDA-activated current after pre-treatment with genestein” value is given as “abolished”. Also, the “effect on NMDA-activated current in presence of PPADS” value in assay [4] (purine P2 receptor antagonist PPADS) is listed as “eliminated”. Moreover, in assay [5] (50 μmol/kg s.c.), the CFA-induced thermal hyperalgesia result was “attenuates”. Moreover, the “thermal hyperalgesia, contra lateral paw” value in assay [5] (50 μmol/kg s.c. (FIG. 18)) is “attenuates”. Besides, the “paw withdrawal latencies, contra lateral (non-inflamed) paw” value in assay [5] (48 h (FIG. 18)) is given as “increases”. In addition, the “paw withdrawal latencies, CFA-injected paw” value in assay [5] (48 h after intraplantar CFA (FIG. 17)) was “increases”. The “paw withdrawal latencies for the uninjured paw” value in assay [5] (at the doses tested, compared with injured paw) is “less effectively altered”. In addition, the “thermal hyperalgesia, injured paw” value in assay [5] (s.c. administration, 48 h after intraplantar CFA (FIG. 17)) is “evidently potent; also recorded: fully blocked”. The “onset of antinociceptive effects in the injured paw after injection” value in assay [5] (s.c., injured paw) came out at 3 h. Further, the “amplitudes of antidromic spikes” value in assay [6] (CA3-CA1 synapses, 1.9-7.4 μm (FIG. 5B)) is listed as “remained unchanged”. In addition, the “effect on amplitude of antidromically induced population spikes in presence of Ip4I” value in assay [6] (Ip4I 20 μM, then 7.4 μM (FIG. 11)) was “did not cause AppCH2ppA to have an effect”. The “effect on orthodromically evoked field potentials” value in assay [1] (1.9, 3.7 and 7.4 μm applied in steps, all synaptic pathways incl. CA3-CA1 synapses (FIG. 5A)) is “fast and reversible inhibition”. The “effect on amplitude of orthodromically induced population spikes in presence of Ip4I” value in assay [7] (Ip4I 20 μM, then 7.4 μM (FIG. 10)) is reported as “did hot alter”. In addition, the “blocking effect on the orthodromic spikes in presence of PPADS” value in assay [7] (PPADS 20 μM applied first (FIG. 6)) is “completely abolished”. The “reduction by PTIO of the extent of inhibition of orthodromically evoked field potentials” value in assay [7] (PTIO 1 mM, then 2.5 μM (FIG. 12)) is on record as “over 50%”. The “inhibition of orthodromically evoked field potentials in presence of adenosine deaminase” value in assay [7] (adenosine deaminase approx. 2 U/ml, then 7.4 μM) is given as “eliminated”. In assay [7] (bicuculine 50 μM, then 7.4 μM), the “inhibition of orthodromically evoked field potentials in presence of bicuculine” value is “unaffected”. For the same compound, the “inhibition of orthodromically evoked field potentials in presence of CPT” value in assay [7] (cyclopentyl teophylline (CPT) 1 μM, then 7.4 μM (FIG. 7)) is given as “eliminated”. Moreover, in assay [7] (hexamethonium 100 μM, then 7.4 μM), the “inhibition of orthodromically evoked field potentials in presence of hexamethonium” value is reported as “unaffected”. In addition, the “inhibition of orthodromically evoked field potentials in presence of strychnine” value in assay [7] (strychnine 500 nM, then 7.4 μM) is recorded as “unaffected”. The EPSC decay entry in assay [8] (FIG. 5C) is listed as “unchanged”. For the same compound, the “amplitudes of EPSCs” value in assay [8] (recorded in CA1 pyramidal neuron, 1.9-7.4 μm (FIG. 5C)) was “remained unchanged”.

On to `Nc1ncnc2c1ncn2[C@@H]1O[C@H](CO)[C@@H](O)[C@H]1O` [adenosine], for which the “effect on EPSC amplitudes” value in assay [2] (shown previously (literature)) is “diminish”. Besides, the “effect on orthodromic spikes” value in assay [3] (5 μM, shown previously (literature)) is given as “inhibit”.

For `Nc1ncnc2c1ncn2[C@@H]1O[C@H](COP(=O)(O)CP(=O)(O)OP(=O)(O)O)[C@@H](O)[C@H]1O` [α,β-methylene-ATP], the “inhibition of orthodromically evoked field potentials by known P2X/P2Y agonists” value in assay [1] is on record as “unable to inhibit”.
